{
  "source": "patent US20240344145A1",
  "about": "“PHARMACOGENOMICS SCORE TO MAKE DECISIONS ON THERAPY AUGMENTATION IN AML” (University of Florida Research Foundation, Incorporated, priority 2021, published 2024)",
  "test_system": "pediatric AML patients",
  "test": "AML02 multicenter clinical trial, LDAC vs HDAC induction arms: MRD1, EFS and OS overall and by ACS10 score",
  "format": "in vivo, human",
  "design": "3-year EFS / 4-year OS / 5-year OS / 4-year EFS / 5-year EFS / 3-year OS: unit not given here",
  "conditions": "for Event-free Survival 5 years / Overall Survival 5 years: AML02 cohort",
  "protocol": "One hundred and sixty-six pediatric AML patients treated under the multicenter AML02 clinical trial protocol were included in the study. Details of study design and clinical outcome have been described elsewhere. Briefly, patients with de novo AML were randomized to receive either high (3 g/m^2, given every 12 h on days 1, 3, and 5; this condition is designated “HDAC”) or low dose (100 mg/m^2 given every 12 h on days 1-10; this condition is designated “LDAC”) cytarabine along with daunorubicin (50 mg/m^2 on days 2, 4 and 6) and etoposide (100 mg/m^2 on days 2-6) as a first course of chemotherapy with subsequent treatment tailored to response and risk classification. For initial risk assignment, patients with cytogenetic translocations comprisingt [8;21] (e.g., translocation between chromosome 8 and 21), inv (16), ort [9;11] were classified as low-risk. Patients with features such as deletion of chromosome 7 (−7), presence of FLT3-ITD mutation (FLT-ITD), cytogenetic translocation comprisingt [6;9], megakaryoblastic leukemia (AMKL), treatment-related AML, or AML arising from MDS were classified as high-risk AML. Patients lacking any of the low or high-risk group features were provisionally classified as standard risk AML. Patient risk classifications were updated on the basis of minimal residual disease evaluations. Clinical endpoints used in this evaluation were defined as follows: i) Minimal residual disease after induction 1 (“MRD1”) (patients were defined as MRD positive if they had ≥1 leukemic cell per 1000 mononuclear bone marrow cells (≥0.1%); ii) Complete remission defined as trilineage hematopoietic recovery with less than 5% blasts in the marrow; iii) Event-free survival (“EFS”) defined as the time from study enrollment to induction failure, relapse, secondary malignancy, death, or study withdrawal for any reason, with event-free patients censored on the date of last follow-up; and iv) Overall survival (“OS”) defined as the time from study enrollment to death, with living patients censored on the date of last follow-up. St. Jude Institutional Review Board approved the study, and informed consent was obtained from parents/guardians and consents/assents from the individuals.\nThe association of MRD1, EFS, and OS was evaluated with ACS10 scores in the AML02 discovery cohort and the AAML0531 validation cohort. The Kaplan-Meier method was used to estimate the EFS and OS probabilities for well-defined groups of patients. Cox regression models were used to associate ACS10 with EFS and OS and used logistic regression models to associate ACS10 with MRD1. The Wilcoxon rank-sum test and Kruskal-Wallis test were used to compare medians of numeric variables across groups. Chi-square tests and Fisher's exact test were used to evaluate the association among pairs of categorical variables. All p-values are two-sided. All statistical analyses were performed using R software (www.r-project.org).\nThe multicenter AML02 clinical trial randomly assigned subjects to receive low dose ara-C (LDAC: 100 mg/m^2; n=91 patients) or high dose ara-C(HDAC: 3 g/m^2; n=75 patients) in combination with daunorubicin and etoposide as the first course of chemotherapy as described above in patient cohort section. Thus, the association of SNPs with outcome within each arm separately was also explored (Table 5).\nGiven patients in AML02 cohort were randomized to receive low or augmented high dose of ara-C, this unique opportunity was leveraged to evaluate performance of ACS10 score within the different ara-C dose treatment arms (of note LDAC and HDAC arms had similar distribution of patients across, disease characteristics, risk group, cytogenetics, race, gender etc. Table 3). […]",
  "key": {"[1]": {"conditions": "ACS10 score 0, risk-adjusted Cox model"}, "[2]": {"conditions": "ACS10 score 1, risk-adjusted Cox model"}, "[3]": {"conditions": "ACS10 score 2, risk-adjusted Cox model"}, "[4]": {"conditions": "ACS10 score 3, risk-adjusted Cox model"}, "[5]": {"conditions": "ACS10 score 4, risk-adjusted Cox model"}, "[6]": {"conditions": "ACS10 score 5, risk-adjusted Cox model"}, "[7]": {"conditions": "ACS10 score −1, risk-adjusted Cox model"}, "[8]": {"conditions": "ACS10 score −2, risk-adjusted Cox model"}, "[9]": {"conditions": "ACS10 score −3, risk-adjusted Cox model"}, "[10]": {"conditions": "ACS10 score −5, risk-adjusted Cox model"}, "[11]": {"conditions": "low ACS10 score (≤0) patients, AML02"}, "[12]": {"conditions": "number of patients per arm, after induction 1, AML02 cohort"}, "[13]": {"conditions": "patients with ACS10 score of +5, risk-adjusted Cox model"}, "[14]": {"conditions": "patients with ACS10 score of −5, risk-adjusted Cox model"}},
  "data": [
    {"smiles": "Nc1ccn([C@@H]2O[C@H](CO)[C@@H](O)[C@@H]2O)c(=O)n1", "note": "[LDAC, cytarabine]", "values": [
      {"measurement": "3-year EFS", "setting": "[1]", "result": 0.5527},
      {"measurement": "3-year OS", "setting": "[1]", "result": 0.7030},
      {"measurement": "4-year EFS", "setting": "[1]", "result": 0.5391},
      {"measurement": "4-year OS", "setting": "[1]", "result": 0.6960},
      {"measurement": "5-year EFS", "setting": "[1]", "result": 0.5316},
      {"measurement": "5-year OS", "setting": "[1]", "result": 0.6960},
      {"measurement": "3-year EFS", "setting": "[2]", "result": 0.6541},
      {"measurement": "3-year OS", "setting": "[2]", "result": 0.7604},
      {"measurement": "4-year EFS", "setting": "[2]", "result": 0.6423},
      {"measurement": "4-year OS", "setting": "[2]", "result": 0.7544},
      {"measurement": "5-year EFS", "setting": "[2]", "result": 0.6357},
      {"measurement": "5-year OS", "setting": "[2]", "result": 0.7544},
      {"measurement": "3-year EFS", "setting": "[3]", "result": 0.7393},
      {"measurement": "3-year OS", "setting": "[3]", "result": 0.8089},
      {"measurement": "4-year EFS", "setting": "[3]", "result": 0.7296},
      {"measurement": "4-year OS", "setting": "[3]", "result": 0.8039},
      {"measurement": "5-year EFS", "setting": "[3]", "result": 0.7242},
      {"measurement": "5-year OS", "setting": "[3]", "result": 0.8039},
      {"measurement": "3-year EFS", "setting": "[4]", "result": 0.8073},
      {"measurement": "3-year OS", "setting": "[4]", "result": 0.8489},
      {"measurement": "4-year EFS", "setting": "[4]", "result": 0.7997},
      {"measurement": "4-year OS", "setting": "[4]", "result": 0.8448},
      {"measurement": "5-year EFS", "setting": "[4]", "result": 0.7955},
      {"measurement": "5-year OS", "setting": "[4]", "result": 0.8448},
      {"measurement": "3-year EFS", "setting": "[5]", "result": 0.8596},
      {"measurement": "3-year OS", "setting": "[5]", "result": 0.8814},
      {"measurement": "4-year EFS", "setting": "[5]", "result": 0.8539},
      {"measurement": "4-year OS", "setting": "[5]", "result": 0.8781},
      {"measurement": "5-year EFS", "setting": "[5]", "result": 0.8507},
      {"measurement": "5-year OS", "setting": "[5]", "result": 0.8781},
      {"measurement": "3-year EFS", "setting": "[6]", "result": 0.8988},
      {"measurement": "3-year OS", "setting": "[6]", "result": 0.9074},
      {"measurement": "4-year EFS", "setting": "[6]", "result": 0.8946},
      {"measurement": "4-year OS", "setting": "[6]", "result": 0.9048},
      {"measurement": "5-year EFS", "setting": "[6]", "result": 0.8922},
      {"measurement": "5-year OS", "setting": "[6]", "result": 0.9048},
      {"measurement": "3-year EFS", "setting": "[7]", "result": 0.4399},
      {"measurement": "3-year OS", "setting": "[7]", "result": 0.6369},
      {"measurement": "4-year EFS", "setting": "[7]", "result": 0.4255},
      {"measurement": "4-year OS", "setting": "[7]", "result": 0.6289},
      {"measurement": "5-year EFS", "setting": "[7]", "result": 0.4176},
      {"measurement": "5-year OS", "setting": "[7]", "result": 0.6289},
      {"measurement": "3-year EFS", "setting": "[8]", "result": 0.3251},
      {"measurement": "3-year OS", "setting": "[8]", "result": 0.5632},
      {"measurement": "4-year EFS", "setting": "[8]", "result": 0.3112},
      {"measurement": "4-year OS", "setting": "[8]", "result": 0.5546},
      {"measurement": "5-year EFS", "setting": "[8]", "result": 0.3037},
      {"measurement": "5-year OS", "setting": "[8]", "result": 0.5546},
      {"measurement": "3-year EFS", "setting": "[9]", "result": 0.2202},
      {"measurement": "3-year OS", "setting": "[9]", "result": 0.4846},
      {"measurement": "4-year EFS", "setting": "[9]", "result": 0.2083},
      {"measurement": "4-year OS", "setting": "[9]", "result": 0.4756},
      {"measurement": "5-year EFS", "setting": "[9]", "result": 0.2020},
      {"measurement": "5-year OS", "setting": "[9]", "result": 0.4756},
      {"measurement": "3-year EFS", "setting": "[10]", "result": 0.0743},
      {"measurement": "3-year OS", "setting": "[10]", "result": 0.3280},
      {"measurement": "4-year EFS", "setting": "[10]", "result": 0.0683},
      {"measurement": "4-year OS", "setting": "[10]", "result": 0.3197},
      {"measurement": "5-year EFS", "setting": "[10]", "result": 0.0652},
      {"measurement": "5-year OS", "setting": "[10]", "result": 0.3197},
      {"measurement": "Event-free Survival 5 years", "setting": "High ACS10 score group", "result": "0.712 ± 0.063"},
      {"measurement": "Overall Survival 5 years", "setting": "High ACS10 score group", "result": "0.829 ± 0.052"},
      {"measurement": "Event-free Survival 5 years", "setting": "Low ACS10 score group", "result": "0.421 ± 0.08"},
      {"measurement": "Overall Survival 5 years", "setting": "Low ACS10 score group", "result": "0.579 ± 0.08"},
      {"measurement": "5 year EFS", "setting": "[11]", "result": 42, "unit": "%"},
      {"measurement": "five-year OS", "setting": "[11]", "result": 57, "unit": "%"},
      {"measurement": "MRDIND1 Negative (<0.1%)", "setting": "[12]", "result": "49^+"},
      {"measurement": "MRDIND1 Positive (>=0.1%)", "setting": "[12]", "result": "38^+"},
      {"measurement": "3-year EFS, model estimate", "setting": "[13]", "result": 89.9, "unit": "%"},
      {"measurement": "3-year OS, model estimate", "setting": "[13]", "result": 90.7, "unit": "%"},
      {"measurement": "3-year EFS, model estimate", "setting": "[14]", "result": 7.4, "unit": "%"},
      {"measurement": "3-year OS, model estimate", "setting": "[14]", "result": 32.8, "unit": "%"},
      {"measurement": "Event-free Survival 5 years", "setting": "probability, whole arm", "result": "0.591 ± 0.0518"},
      {"measurement": "Overall Survival 5 years", "setting": "probability, whole arm", "result": "0.724 ± 0.047"},
      {"measurement": "EFS HR, low-ACS10 vs high-ACS10 score", "setting": "within arm, AML02", "result": 2.81},
      {"measurement": "OS HR, low-ACS10 vs high-ACS10 score", "setting": "within arm, AML02", "result": 2.98},
      {"measurement": "EFS HR for each one-point increase in ACS10", "setting": "within arm, risk-adjusted Cox model, AML02", "result": 0.70}
    ]}
  ]
}
